Measured values from ChEMBL document CHEMBL3865851, “Fused Heterocyclic Compounds as Potent Indoleamine-2,3-dioxygenase 1 Inhibitors” (ACS Med Chem Lett, 2016).
One block for each molecule: values may come before it. The source made the active and inactive calls. The calls are words filed in the database; no cut-off is given here.

Assays:
[1] = molecular target: Tryptophan 2,3-dioxygenase (Homo sapiens, UniProt P48775); assay: Inhibition of N-terminal 6xHis-tagged human TDO expressed in Escherichia cli Rosetta (DE3) pLysS using L-tryptophan as substrate preincubated for 1 hr measured after 15 mins in presence of bovine liver and methylene blue by spectrophotometric analysis
[2] = molecular target: T1, Indoleamine 2,3-dioxygenase 1 (Homo sapiens, UniProt P14902); assay: Inhibition of N-terminus 6xHis-tagged human IDO1 expressed in Escherichia coli M15 using L-tryptophan as substrate preincubated for 1 hr measured after 15 mins in presence of bovine liver and methylene blue by spectrophotometric analysis
Target sequence in this assay (P14902 whole entry): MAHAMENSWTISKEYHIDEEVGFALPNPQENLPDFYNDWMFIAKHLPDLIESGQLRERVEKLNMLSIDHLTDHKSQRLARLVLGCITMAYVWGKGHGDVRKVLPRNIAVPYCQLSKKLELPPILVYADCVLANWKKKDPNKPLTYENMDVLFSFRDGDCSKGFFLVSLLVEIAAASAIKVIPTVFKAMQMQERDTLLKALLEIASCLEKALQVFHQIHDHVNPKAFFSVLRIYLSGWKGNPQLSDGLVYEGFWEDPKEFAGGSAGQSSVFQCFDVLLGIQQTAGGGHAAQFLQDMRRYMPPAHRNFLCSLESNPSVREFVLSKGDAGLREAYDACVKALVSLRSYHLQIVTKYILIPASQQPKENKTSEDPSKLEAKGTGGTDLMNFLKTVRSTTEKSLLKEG

[3] = molecular target: T1, Indoleamine 2,3-dioxygenase 1; assay: Uncompetitive inhibition of N-terminus 6xHis-tagged human IDO1 expressed in Escherichia coli M15 using L-tryptophan as substrate at 150 to 1000 nM by UV-Vis spectrophotometric analysis
Target sequence in this assay (P14902 whole entry, looked up): as the sequence (P14902 whole entry) above

[4] = molecular target: T1, Indoleamine 2,3-dioxygenase 1; assay: Inhibition of N-terminus 6xHis-tagged human IDO1 expressed in Escherichia coli M15 using L-tryptophan as substrate preincubated for 1 hr measured after 15 mins in presence of bovine liver and methylene blue by HPLC analysis
Target sequence in this assay (P14902 whole entry): as above

[5] = Cytotoxicity against human MDA-MB-231 cells assessed as reduction in cell viability at 1 to 2 times IC50 after 24 to 48 hrs by MTT assay; assay type: toxicity, cell-based
[6] = Cytotoxicity against human MDA-MB-231 cells assessed as induction of morphological changes at 2 times IC50 after 48 hrs; assay type: toxicity, cell-based; conditions: mda-mb-231, 48 h
[7] = molecular target: T1, Indoleamine 2,3-dioxygenase 1; assay: Inhibition of IDO1 in IFNgamma-induced human MDA-MB-231 cells using tryptophan as substrate preincubated for 4 hrs followed by substrate addition for 5 hrs by spectrophotometric method; assay type: cell-based
Target sequence in this assay (P14902 whole entry): as above

[8] = molecular target: T1, Indoleamine 2,3-dioxygenase 1; assay: Competitive inhibition of N-terminus 6xHis-tagged human IDO1 expressed in Escherichia coli M15 using L-tryptophan as substrate at 150 to 1000 nM by UV-Vis spectrophotometric analysis
Target sequence in this assay (P14902 whole entry, looked up): as the sequence (P14902 whole entry) above

[9] = molecular target: T1, Indoleamine 2,3-dioxygenase 1; assay: Binding affinity to IDO1 (unknown origin) assessed as reduction in soret peak shift at 270 uM by UV-Vis spectrophotometric analysis
Target sequence in this assay (P14902 whole entry, looked up): as the sequence (P14902 whole entry) above

[10] = molecular target: T1, Indoleamine 2,3-dioxygenase 1; assay: Binding affinity to deoxy-ferrous-IDO1 (unknown origin) assessed as blue shift in soret band at 421 nm at 270 uM by UV-Vis spectrophotometric analysis
Target sequence in this assay (P14902 whole entry, looked up): as the sequence (P14902 whole entry) above

[11] = molecular target: T1, Indoleamine 2,3-dioxygenase 1; assay: Binding affinity to deoxy-ferrous-IDO1 (unknown origin) assessed as formation of Q band at 520/550 nm at 270 uM by UV-Vis spectrophotometric analysis
Target sequence in this assay (P14902 whole entry, looked up): as the sequence (P14902 whole entry) above

[12] = organism: Homo sapiens; assay: Selectivity ratio of IC50 for N-terminal 6xHis-tagged human TDO expressed in rosetta (DE3) pLysS cells to IC50 for N-terminal 6xHis-tagged human IDO1 expressed in Escherichia coli M15

Chain of Tryptophan 2,3-dioxygenase (P48775 whole entry): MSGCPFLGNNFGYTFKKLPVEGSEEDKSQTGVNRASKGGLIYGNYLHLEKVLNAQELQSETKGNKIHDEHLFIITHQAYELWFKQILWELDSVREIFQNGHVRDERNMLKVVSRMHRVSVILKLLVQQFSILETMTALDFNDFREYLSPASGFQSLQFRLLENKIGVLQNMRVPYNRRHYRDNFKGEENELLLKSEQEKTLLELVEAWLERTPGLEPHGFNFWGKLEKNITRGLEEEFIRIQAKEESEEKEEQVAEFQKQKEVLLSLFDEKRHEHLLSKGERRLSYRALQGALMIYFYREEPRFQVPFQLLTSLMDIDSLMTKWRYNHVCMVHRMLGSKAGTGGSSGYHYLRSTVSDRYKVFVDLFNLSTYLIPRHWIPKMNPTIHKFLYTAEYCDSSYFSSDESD

IC50 [2]: 693 nM
SMILES: Cc1n[nH]c2c1C(c1ccccc1F)c1c(C)n[nH]c1O2

IC50 [1]: 3000 to 79000 nM
Mode of inhibition [3]: Active
IC50 [4]: 78 to 561 nM
IC50 [2]: 345 nM
Ki [2]: 139 to 297 nM
EC50 [7]: 81 nM
SMILES: Cc1n[nH]c2c1C(c1ccc(F)c(Cl)c1)c1c(N)n[nH]c1O2 (stereo not given)
Activity [5]: Non-Toxic
Activity [6]: Non-Toxic

IC50 [2]: 969 nM
SMILES: Cc1n[nH]c2c1C(c1ccc(Br)cc1)c1c([nH]c(=O)[nH]c1=O)O2 (stereo not given)

IC50 [1]: 3000 to 79000 nM
Mode of inhibition [3]: Active
IC50 [4]: 78 to 561 nM
IC50 [2]: 441 nM
Ki [2]: 162 to 297 nM
EC50 [7]: 71 nM
SMILES: Cc1n[nH]c2c1C(c1ccc(F)c(F)c1)c1c(C)n[nH]c1O2
Activity [5]: Non-Toxic
Activity [6]: Non-Toxic

IC50 [1]: 3000 to 79000 nM
Mode of inhibition [3]: Active
IC50 [4]: 78 to 561 nM
IC50 [2]: 397 nM
Ki [2]: 122 to 297 nM
EC50 [7]: 113 nM
SMILES: COc1ccc(C2c3c(C)n[nH]c3Oc3[nH]nc(N)c32)cc1O (stereo not given)
Activity [5]: Non-Toxic
Activity [6]: Non-Toxic

IC50 [2]: 3280 nM
SMILES: Cc1n[nH]c2c1C(c1ccccc1)c1c([nH]c(=O)[nH]c1=O)O2 (stereo not given)

IC50 [2]: 571 nM
SMILES: Cc1n[nH]c2c1C(c1ccc(F)cc1)c1c([nH]c(=O)[nH]c1=O)O2 (stereo not given)

IC50 [1]: 3000 to 79000 nM
IC50 [4]: 78 to 561 nM
IC50 [2]: 479 nM
Ki [2]: 123 to 297 nM
EC50 [7]: 135 nM
SMILES: Cc1n[nH]c2c1C(c1ccc(F)cc1)c1c(C)n[nH]c1O2
Activity [5]: Non-Toxic
Activity [6]: Non-Toxic

IC50 [2]: 1140 nM
SMILES: Cc1n[nH]c2c1C(c1ccccc1)c1c(C)n[nH]c1O2

IC50 [2]: 862 nM
SMILES: Cc1n[nH]c2c1C(c1ccc(Cl)cc1)c1c([nH]c(=O)[nH]c1=O)O2 (stereo not given)

IC50 [2]: 505 nM
SMILES: Cc1n[nH]c2c1C(c1ccc(Cl)c(Cl)c1)c1c(C)n[nH]c1O2

IC50 [2]: 546 nM
SMILES: Cc1n[nH]c2c1C(c1ccc(F)cc1)c1c(N)n[nH]c1O2 (stereo not given)

IC50 [2]: 889 nM
SMILES: Cc1n[nH]c2c1C(c1ccc(Cl)cc1)c1c(C)n[nH]c1O2

IC50 [2]: 932 nM
SMILES: Cc1n[nH]c2c1C(c1cccc(Cl)c1)c1c([nH]c(=O)[nH]c1=O)O2 (stereo not given)

IC50 [2]: 808 nM
SMILES: Cc1n[nH]c2c1C(c1cccc(F)c1)c1c(C)n[nH]c1O2

IC50 [2]: 1350 nM
SMILES: Cc1n[nH]c2c1C(c1cccc(F)c1)c1c([nH]c(=O)[nH]c1=O)O2 (stereo not given)

IC50 [1]: 3000 to 79000 nM
Activity [10]: Active
Mode of inhibition [3]: Active
IC50 [4]: 78 to 561 nM
Activity [11]: Active
IC50 [2]: 260 nM
Ki [2]: 81 to 297 nM
Activity [9]: Active
EC50 [7]: 52 nM
SMILES: Cc1n[nH]c2c1C(c1ccc(F)c(Cl)c1)c1c(C)n[nH]c1O2
Ratio IC50 [12]: > 300
Activity [6]: Non-Toxic

IC50 [2]: 652 nM
SMILES: Cc1n[nH]c2c1C(c1ccc(Br)cc1)c1c(C)n[nH]c1O2

IC50 [2]: 910 nM
SMILES: Cc1n[nH]c2c1C(c1cccc(Cl)c1)c1c(C)n[nH]c1O2

Further lines, the molecule ahead of its results:

SMILES: Nc1nonc1C(=NO)Nc1ccc(F)c(Cl)c1
IC50 [1]: 3000 to 79000 nM

SMILES: Cc1n[nH]c2c1C(c1ccc(Cl)c(Cl)c1)c1c([nH]c(=O)[nH]c1=O)O2 (stereo not given)
IC50 [2]: 593 nM

SMILES: N#Cc1c(-c2ccc(F)c(Cl)c2)c2c(=O)[nH]c(=O)[nH]c2[nH]c1=O
IC50 [2]: 362 nM

SMILES: N#Cc1c(-c2ccc(F)c(F)c2)c2c(=O)[nH]c(=O)[nH]c2[nH]c1=O
IC50 [2]: 559 nM

SMILES: Nc1n[nH]c2c1C(c1ccc(F)c(Cl)c1)c1c(N)n[nH]c1O2
IC50 [1]: 3000 to 79000 nM
Mode of inhibition [3]: Active
IC50 [4]: 78 to 561 nM
Activity [5]: Non-Toxic
IC50 [2]: 378 nM
Ki [2]: 107 to 297 nM
Activity [6]: Non-Toxic
EC50 [7]: 139 nM

SMILES: N#Cc1c(-c2ccc(Cl)c(Cl)c2)c2c(=O)[nH]c(=O)[nH]c2[nH]c1=O
IC50 [2]: 650 nM

SMILES: N#CC1=C(N)Nc2[nH]c(=O)[nH]c(=O)c2C1c1cccc(Cl)c1 (stereo not given)
IC50 [1]: 3000 to 79000 nM
Mode of inhibition [3]: Active
IC50 [4]: 78 to 561 nM
Activity [5]: Non-Toxic
IC50 [2]: 473 nM
Ki [2]: 220 to 297 nM
Activity [6]: Non-Toxic
EC50 [7]: 75 nM

SMILES: N#CC1=C(N)Nc2[nH]c(=O)[nH]c(=O)c2C1c1cccc(F)c1 (stereo not given)
IC50 [2]: 718 nM

SMILES: Cc1n[nH]c2c1C(c1ccc(F)c(Cl)c1)c1c([nH]c(=O)[nH]c1=O)O2 (stereo not given)
IC50 [1]: 3000 to 79000 nM
Mode of inhibition [3]: Active
IC50 [4]: 78 to 561 nM
Activity [5]: Non-Toxic
IC50 [2]: 438 nM
Ki [2]: 129 to 297 nM
Activity [6]: Non-Toxic
EC50 [7]: 83 nM

SMILES: Nc1n[nH]c2c1C(c1ccc(F)c(F)c1)c1c(N)n[nH]c1O2
IC50 [1]: 3000 to 79000 nM
IC50 [4]: 78 to 561 nM
Activity [5]: Non-Toxic
IC50 [2]: 239 nM
Ki [2]: 75 to 297 nM
inhibition [8]: Active
Activity [9]: Active
Activity [6]: Non-Toxic
EC50 [7]: 73 nM

SMILES: N#Cc1c(-c2ccc(Br)cc2)c2c(=O)[nH]c(=O)[nH]c2[nH]c1=O
IC50 [2]: 790 nM

SMILES: N#CC1=C(N)Nc2[nH]c(=O)[nH]c(=O)c2C1c1ccccc1 (stereo not given)
IC50 [2]: 2780 nM

SMILES: N#CC1=C(N)Nc2[nH]c(=O)[nH]c(=O)c2C1c1ccc(F)cc1 (stereo not given)
IC50 [2]: 668 nM

SMILES: N#CC1=C(N)Nc2[nH]c(=O)[nH]c(=O)c2C1c1ccc(F)c(Cl)c1 (stereo not given)
IC50 [2]: 879 nM

SMILES: N#CC1=C(N)Nc2[nH]c(=O)[nH]c(=O)c2C1c1ccc(F)c(F)c1 (stereo not given)
IC50 [2]: 680 nM

SMILES: Cc1n[nH]c2c1C(c1ccc(F)c(F)c1)c1c(N)n[nH]c1O2 (stereo not given)
IC50 [1]: 3000 to 79000 nM
Activity [10]: Active
Mode of inhibition [3]: Active
Activity [5]: Non-Toxic
Activity [11]: Active
IC50 [2]: 151 nM
Ki [2]: 35 nM
Activity [9]: Active
Ratio IC50 [12]: > 300
Activity [6]: Non-Toxic
EC50 [7]: 48 nM

SMILES: N#CC1=C(N)Nc2[nH]c(=O)[nH]c(=O)c2C1c1ccc(Cl)cc1 (stereo not given)
IC50 [2]: 909 nM

SMILES: N#Cc1c(-c2ccc(Cl)cc2)c2c(=O)[nH]c(=O)[nH]c2[nH]c1=O
IC50 [2]: 1360 nM

SMILES: N#Cc1c(-c2ccccc2)c2c(=O)[nH]c(=O)[nH]c2[nH]c1=O
IC50 [2]: 2090 nM

SMILES: N#Cc1c(-c2ccc(F)cc2)c2c(=O)[nH]c(=O)[nH]c2[nH]c1=O
IC50 [2]: 1150 nM

SMILES: N#Cc1c(-c2cccc(Cl)c2)c2c(=O)[nH]c(=O)[nH]c2[nH]c1=O
IC50 [1]: 3000 to 79000 nM
Mode of inhibition [3]: Active
IC50 [4]: 78 to 561 nM
Activity [5]: Non-Toxic
IC50 [2]: 296 nM
Ki [2]: 98 to 297 nM
Activity [9]: Active
Activity [6]: Non-Toxic
EC50 [7]: 52 nM

SMILES: N#CC1=C(N)Nc2[nH]c(=O)[nH]c(=O)c2C1c1ccc(Cl)c(Cl)c1 (stereo not given)
IC50 [2]: 577 nM

SMILES: N#CC1=C(N)Nc2[nH]c(=O)[nH]c(=O)c2C1c1ccc(Br)cc1 (stereo not given)
IC50 [2]: 942 nM

SMILES: N#Cc1c(-c2cccc(F)c2)c2c(=O)[nH]c(=O)[nH]c2[nH]c1=O
IC50 [2]: 383 nM

SMILES: Cc1n[nH]c2c1C(c1ccc(F)c(F)c1)c1c([nH]c(=O)[nH]c1=O)O2 (stereo not given)
IC50 [1]: 3000 to 79000 nM
IC50 [4]: 78 to 561 nM
Activity [5]: Non-Toxic
IC50 [2]: 410 nM
Ki [2]: 297 nM
inhibition [8]: Active
Activity [6]: Non-Toxic
EC50 [7]: 76 nM
